Test results taken from patent US9783545B2, “Pyrazolopyridazines and methods for treating retinal-degenerative diseases and hearing loss associated with usher syndrome” (Usher III Initiative, Inc., priority 2012, dated 2017).
pEC50, pIC50: −log10 of the molar value.

Target: T1, N48K Clarin-1 (Homo sapiens, UniProt P58418, N48K)
T1 construct: expressed in transfected cells
T1 sequence (P58418 1-232 N48K): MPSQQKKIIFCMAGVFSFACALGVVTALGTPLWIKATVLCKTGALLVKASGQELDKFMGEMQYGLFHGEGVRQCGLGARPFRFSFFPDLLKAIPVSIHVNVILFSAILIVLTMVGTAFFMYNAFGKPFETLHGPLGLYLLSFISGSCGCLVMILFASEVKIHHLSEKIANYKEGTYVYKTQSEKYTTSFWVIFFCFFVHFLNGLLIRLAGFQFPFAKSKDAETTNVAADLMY
Assay: Restoration of expression of N48K Clarin-1, 24 hour incubation (high content imaging of HA-tagged N48K Clarin-1)
Format: cell-based
Conditions: HEK293-Clarin-1 N48K-HA D9 cell line, 24 hr incubation with compound; read-out: IC50 (the source's name)
Experimental: Assay Method Showing Activity of Compounds of the Invention that Restore Expression of N48K Clarin-1 (24 hour incubation)
(§1) Clarin-1 is the protein encoded by the gene mutated in Usher III Syndrome (Adato et al., 2002). The most prevalent mutation in Clarin-1 in North America is N48K, which is reported to cause loss of glycosylation and a trafficking defect (Tian et al., 2009). […] Thus it is believed that restoring the trafficking of N48K Clarin-1 to the cell surface provides an avenue of intervention for Usher III Sydrome.
(§2) In a typical experiment, these cells were seeded on collagen-coated 96-well plates at a cell density of 20,000 cells per well in Dulbecco's Modified Eagle Medium (DMEM) contain 10% fetal bovine serum in a humidified incubator at 37° C., 5% CO2. After an overnight incubation, compounds were added for a 24 hr incubation in DMEM medium contain 10% fetal bovine serum in a humidified incubator at 37° C., 5% CO2. As a negative control, DMSO was used at 0.25% final concentrations. Compounds were typically tested in triplicate fashion. After the 24 hr incubation with compounds, the cells were fixed by the addition of 10% buffered formalin to the wells to achieve a final concentration of 4% formalin. After a 20 min fixation at room temperature, wells were washed three times with phosphate-buffered saline (PBS) containing Triton X-100 (0.02 phosphate, 150 mM NaCl, 0.1% Triton X-100).
(§3) The HA-tagged N48K Clarin-1 was detected with an antibody against the HA tag (HA.11 Clone 16B12 Monoclonal antibody, Covance #MMS-101P) at a dilution of 1:1000 in PBS containing Triton X-100. After a 90 min incubation, wells were washed three times with PBS containing Triton X-100, and a secondary antibody (Goat anti-mouse IgG-Cy3 (1.5 mg/ml), Jackson IR Europe #115165003) was added to the wells at a dilution of 1:250 in PBS containing Triton X-100 for 45 min. Wells were subsequently washed three times with PBS containing Triton X-100, and a final staining for nuclei was performed by the addition of DAPI (4′,6-diamidino-2-phenylindole) at a dilution of 1:10,000. The imaging of the stained cells was performed on an InCell 1000 High Content Imager (GE Healthcare), reading out the Cy3 channel for N48K Clarin-1 and the DAPI channel for nuclei. The images were analyzed and quantitated using a specific algorithm. This algorithm measured the HA-Clarin-1 staining for each cell based on the additional nuclear segmentation of the DAPI signal (FIG. 1). This algorithm measured the intensity per cell, and thus it is less sensitive for variation in cell number. Per well, approximately 2,000 cells were measured to achieve an average density per cell measurement. FIG. 1 illustrates high content analysis. DAPI-stained nuclei are used to perform segmentation of the image into individual cells. The density observed in the N48K Clarin-1 channel (Cy3) is then calculated per cell averaged over a field.

| pEC50 | SMILES |
| --- | --- |
| 4.68 to 5.30 | CN1CCN(CCn2ncc3c(Cl)c(-c4ccccc4)nnc32)CC1 [Ib, 4-Chloro-1-(2-(4-methylpiperazin-1-yl)ethyl)-5-phenyl-1H-pyrazolo[3,4-c]pyridazine] |
| ≥ 5.70 | Cc1nn(C)c2nnc(-c3cccc(F)c3)c(Cl)c12 [Compound 25, 4-chloro-5-(3-fluorophenyl)-1,3-dimethyl-pyrazolo[3,4-c]pyridazine] |
| ≥ 5.70 | Clc1c(-c2ccccc2)nnc2c1c(-c1ccccc1)nn2Cc1ccncc1 [IIo, 4-chloro-3,5-diphenyl-1-(4-pyridylmethyl)pyrazolo[3,4-c]pyridazine] |

Target: T1, N48K Clarin-1
Assay: Restoration of expression of N48K Clarin-1, 2 hour incubation then 22 hr fresh medium (high content imaging of HA-tagged N48K Clarin-1)
Format: cell-based
Conditions: HEK293-Clarin-1 N48K-HA D9 cell line, 2 hr incubation with compound, then 22 hr in fresh medium
Experimental: An Assay Method Showing Activity of Compounds of the Invention that Restore Expression of N48K Clarin-1(2 hour incubation)
as §1
as §2, with “for a 2 hr incubation” for “for a 24 hr incubation”, “After the 2 hr incubation” for “After the 24 hr incubation”, “cells were incubated in fresh medium for 22 hr. The cells were then fixed by” for “cells were fixed by”
as §3, with “images are” for “images were”, “measurement.” for “measurement. FIG. 1 illustrates high content analysis. DAPI-stained nuclei are used to perform segmentation of the image into individual cells. The density observed in the N48K Clarin-1 channel (Cy3) is then calculated per cell averaged over a field.”

| SMILES | pIC50 |
| --- | --- |
| Cc1ccc(-c2nn(CCN3CCN(C)CC3)c3nnc(-c4ccccc4)c(Cl)c23)o1 [Io, 4-chloro-3-(5-methyl-2-furyl)-1-[2-(4-methylpiperazin-1-yl)ethyl]-5-phenyl-pyrazolo[3,4-c]pyridazine] | ≥ 5.40 |
| F[C@@H]1CCN(CCn2nc(-c3ccccc3)c3c(Cl)c(-c4ccccc4)nnc32)C1 [IIu, 4-chloro-1-[2-1[(3R)-3-fluoropyrrolidin-1-yl]ethyl]-3,5-diphenyl-pyrazolo[3,4-c]pyridazine] | ≥ 5.40 |
| CN1CCN(CCn2nc(-c3ccccn3)c3c(Cl)c(-c4ccccc4)nnc32)CC1 [Iy, 4-chloro-1-[2-(4-methylpiperazin-1-yl)ethyl]-5-phenyl-3-(2-pyridyl)pyrazolo[3,4-c]pyridazine] | ≥ 5.40 |
| F[C@H]1CCN(CCn2nc(-c3ccccc3)c3c(Cl)c(-c4ccccc4)nnc32)C1 [IIt, 4-chloro-1-[2-[(3S)-3-fluoropyrrolidin-1-yl]ethyl]-3,5-diphenyl-pyrazolo[3,4-c]pyridazine] | ≥ 5.40 |
| Cc1ccc(-c2nn(CCN3CCN(C)CC3)c3nnc(-c4ccccc4)c(Cl)c23)s1 [Icc, 4-chloro-1-[2-(4-methylpiperazin-1-yl)ethyl]-3-(5-methyl-2-thienyl)-5-phenyl-pyrazolo[3,4-c]pyridazine] | ≥ 5.40 |
| F[C@@H]1CCN(CCn2nc(I)c3c(Cl)c(-c4ccccc4)nnc32)C1 [Ip, 4-chloro-1-[2-[(3R)-3-fluoropyrrolidin-1-yl]ethyl]-3-iodo-5-phenyl-pyrazolo[3,4-c]pyridazine] | 5.10 to 5.40 |
| O=C(Cn1nc(I)c2c(Cl)c(-c3ccccc3)nnc21)N1CC[C@@H](F)C1 [It, 2-(4-chloro-3-iodo-5-phenyl-pyrazolo[3,4-c]pyridazin-1-yl)-1-[(3R)-3-fluoropyrrolidin-1-yl]ethanone] | 5.10 to 5.40 |
| CN1CCN(CCn2nc(N3CCCC3)c3c(Cl)c(-c4ccccc4)nnc32)CC1 [Iz, 4-chloro-1-[2-(4-methylpiperazin-1-yl)ethyl]-5-phenyl-3-pyrrolidin-1-yl-pyrazolo[3,4-c]pyridazine] | ≥ 5.40 |
| Fc1ccc(-c2nn(CCN3CC[C@@H](F)C3)c3nnc(-c4ccccc4)c(Cl)c23)cc1 [IIy, 4-chloro-3-(4-fluorophenyl)-1-[2-[(3R)-3-fluoropyrrolidin-1-yl]ethyl]-5 phenyl-pyrazolo[3,4-c]pyridazine] | ≥ 5.40 |
| Cn1nc(N2CCCC2)c2c(Cl)c(-c3ccccc3)nnc21 [XIIIc, 4-chloro-1-methyl-5-phenyl-3-pyrrolidin-1-yl-pyrazolo[3,4-c]pyridazine] | 4.92 to 5.10 |
| CS(=O)(=O)CCn1nc(C2CC2)c2c(Cl)c(-c3ccccc3)nnc21 [Ix, 4-chloro-3-cyclopropyl-1-(2-methylsulfonylethyl)-5-phenyl-pyrazolo[3,4-c]pyridazine] | 4.92 to 5.10 |

Next, values leading:

| pIC50 | SMILES |
| --- | --- |
| ≥ 5.40 | Clc1c(-c2ccccc2)nnc2c1c(C1=CCOCC1)nn2CCN1CCCC1 [Is, 4-chloro-3-(3,6-dihydro-2H-pyran-4-yl)-5-phenyl-1-(2-pyrrolidin-1-ylethyl)pyrazolo[3,4-c]pyridazine] |
| ≥ 5.40 | Clc1c(-c2ccccc2)nnc2c1c(-c1ccccc1)nn2CCn1cccn1 [XIVa, 4-chloro-3,5-diphenyl-1-(2-pyrazol-1-ylethyl)pyrazolo[3,4-c]pyridazine] |
| 5.10 to 5.40 | F[C@@H]1CCN(CCn2nc(C3=CCOCC3)c3c(Cl)c(-c4ccccc4)nnc32)C1 [Iq, 4-chloro-3-(3,6-dihydro-2H-pyran-4-yl)-1-[2-[(3R)-3-fluoropyrrolidin-1-yl]ethyl]-5-phenyl-pyrazolo[3,4-c]pyridazine] |
| 5.10 to 5.40 | Cn1nc(-c2ccccc2)c2c(Cl)c(C3=CCCC3)nnc21 [IIIb, 4-chloro-5-(cyclopenten-1-yl)-1-methyl-3-phenyl-pyrazolo[3,4-c]pyridazine] |
| ≥ 5.40 | Clc1c(-c2ccccc2)nnc2c1c(I)nn2CCN1CCCC1 [Ir, 4-chloro-3-iodo-5-phenyl-1-(2-pyrrolidin-1-ylethyl)pyrazolo[3,4-c]pyridazine] |
| 5.10 to 5.40 | Cc1nn(CCN2CCCC2)c2nnc(-c3ccccc3)c(Cl)c12 [XIIId, 4-chloro-3-methyl-5-phenyl-1-(2-pyrrolidin-1-ylethyl)pyrazolo[3,4-c]pyridazine] |
| 5.10 to 5.40 | FC1(F)CN(CCn2nc(-c3ccccc3)c3c(Cl)c(-c4ccccc4)nnc32)C1 [IIw, 4-chloro-1-[2-(3,3-dilluoroazetidin-1-yl)ethyl]-3,5-diphenyl-pyrazolo[3,4-c]pyridazine] |
| ≥ 5.40 | Fc1cccc(-c2nn(CCN3CC[C@@H](F)C3)c3nnc(-c4ccccc4)c(Cl)c23)c1 [IIx, 4-chloro-3-(3-fluorophenyl)-1-[2-[(3R)-3-fluoropyrrolidin-1-yl]ethyl]-5-phenyl-pyrazolo[3,4-c]pyridazine] |
| 5.10 to 5.40 | Cn1cncc1Cn1nc(-c2cccn2C)c2c(Cl)c(-c3ccccc3)nnc21 [XIIIb, 4-chloro-1-[(3-methylimidazol-4-yl)methyl]-3-(1-methylpyrrol-2-yl)-5-phenyl-pyrazolo[3,4-c]pyridazine] |
| 5.10 to 5.40 | Cn1nc(-c2ccccc2)c2c(Cl)c(I)nnc21 [IIIa, 4-chloro-5-iodo-1-methyl-3-phenyl-pyrazolo[3,4-c]pyridazine] |
| 5.10 to 5.40 | FC1(F)CCN(CCn2nc(-c3ccccc3)c3c(Cl)c(-c4ccccc4)nnc32)C1 [IIv, 4-chloro-1-[2-(3,3-difluoropyrrolidin-1-yl)ethyl]-3,5-diphenyl-pyrazolo[3,4-c]pyridazine] |
